Results taken from US20250296959A1, “B7-H3 TARGETING PEPTIDES AND CONSTRUCTS THEREOF” (Mariana Oncology Inc., priority 2024, published 2025).
pKd: −log10 of the molar value. Starred links: 1 amine or outer side, 2 acyl side, 3 side chain; linkers in the order of their positions; H or OH if unused. Positions of bridges follow the written chain, without caps; N, C: chain ends. Non-standard residues stand in square brackets, D forms with d. Residues, ends and D or L forms follow the SMILES beside them. *: point of attachment. Ala(1-CH2CO2H-4-piperidyl) = N[C@@H](CC1CCN(CC(=O)O)CC1)C(=O)O; Ala(piperidin-4-yl) = O=C([C@H](CC1CCN([*:3])CC1)N[*:1])[*:2]; DOTA = O=C(O)CN1CCN(CC(=O)O)CCN(CC(=O)*)CCN(CC(=O)O)CC1; Phe(4-COOH) = N[C@@H](Cc1ccc(C(=O)O)cc1)C(=O)O; Trp(5-F) = N[C@@H](Cc1c[nH]c2ccc(F)cc12)C(=O)O; 1Nal = N[C@@H](Cc1cccc2ccccc12)C(=O)O; Ala(4-THP) = N[C@@H](CC1CCOCC1)C(=O)O; Val(3-OH) = CC(C)(O)[C@H](N)C(=O)O; Tle = CC(C)(C)[C@H](N)C(=O)O; hLeu = CC(C)CC[C@H](N)C(=O)O

Molecular target: T1, human 4lg B7-H3 (Homo sapiens, UniProt Q5ZPR3)
T1 sequence (Q5ZPR3 29-534): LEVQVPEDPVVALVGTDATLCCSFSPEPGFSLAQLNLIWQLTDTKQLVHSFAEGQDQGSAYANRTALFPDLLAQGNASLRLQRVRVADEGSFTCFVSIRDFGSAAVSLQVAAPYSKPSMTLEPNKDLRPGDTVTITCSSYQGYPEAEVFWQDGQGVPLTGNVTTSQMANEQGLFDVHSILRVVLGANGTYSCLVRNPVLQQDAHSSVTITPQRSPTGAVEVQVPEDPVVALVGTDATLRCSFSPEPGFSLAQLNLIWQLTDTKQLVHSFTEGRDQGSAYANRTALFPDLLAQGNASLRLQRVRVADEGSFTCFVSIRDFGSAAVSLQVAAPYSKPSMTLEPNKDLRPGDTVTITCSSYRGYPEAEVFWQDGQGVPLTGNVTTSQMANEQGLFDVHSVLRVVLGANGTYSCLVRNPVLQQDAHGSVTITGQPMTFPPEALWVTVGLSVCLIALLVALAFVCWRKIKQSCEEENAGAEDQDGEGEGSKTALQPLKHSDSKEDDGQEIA
Experiment: Affinity determination by surface plasmon resonance (SPR) to 4Ig B7-H3
Conditions: 4Ig B7-H3

[1] = SPR KD—37° C., 37° C. flow cell temperature

SMILES | pKd (SPR KD—25° C., 25° C. flow cell temperature) | pKd [1]
CC(=O)N[C@@H](CCC(C)C)C(=O)N[C@@H](Cc1ccc(O)cc1)C(=O)N[C@H]1CSSC[C@@H](C(=O)N[C@@H](Cc2c[nH]c3ccc(F)cc23)C(=O)N[C@@H](CC(C)C)C(=O)N[C@H](C(=O)N[C@H](CCCCNC(=O)CN2CCN(CC(=O)O)CCN(CC(=O)O)CCN(CC(=O)O)CC2)C(=O)O)[C@@H](C)O)NC(=O)[C@H](Cc2ccc(O)cc2)NC(=O)[C@H](C(C)C)NC(=O)[C@H](CC(=O)O)NC(=O)[C@H](CC2CCOCC2)NC(=O)[C@H](CCCCN)NC(=O)CNC(=O)[C@H](C(C)(C)C)NC1=O [compound 334, Ac-hLeu-Y-C-Tbg-G-K-ThpA-D-V-Y-C-5FW-Leu-Thr-dLys(DOTA)-COOH] (Ac-[hLeu]YC[Tle]GK[Ala(4-THP)]DVYC[Trp(5-F)]LT[dK](DOTA)-OH; disulfide 3-11) | 7.00 to 8.00 | 
CC(=O)N[C@@H](CCC(C)C)C(=O)N[C@@H](Cc1ccc(O)cc1)C(=O)N[C@H]1CSSC[C@@H](C(=O)N[C@@H](Cc2c[nH]c3ccc(F)cc23)C(=O)N[C@@H](Cc2ccccc2)C(=O)N[C@H](C(=O)N[C@H](CO)C(=O)O)C(C)(C)O)NC(=O)[C@H](Cc2ccc(O)cc2)NC(=O)[C@H](C(C)C)NC(=O)[C@H](CC(=O)O)NC(=O)[C@H](CC2CCN(C(=O)CN3CCN(CC(=O)O)CCN(CC(=O)O)CCN(CC(=O)O)CC3)CC2)NC(=O)[C@H](CC2CCNCC2)NC(=O)CNC(=O)[C@H](C(C)(C)C)NC1=O [compound 449, Ac-hLeu-Y-C-Tbg-G-PipAla-Pip(DOTA)Ala-D-V-Y-C-5FW-F-hydroxyVal-dSer-COOH] (Ac-[hLeu]YC[Tle]G[Ala(piperidin-4-yl)][Ala(piperidin-4-yl)](DOTA)DVYC[Trp(5-F)]F[Val(3-OH)][dS]-OH; disulfide 3-11) |  | > 9.00
CC(=O)N[C@@H](CCC(C)C)C(=O)N[C@@H](Cc1ccc(O)cc1)C(=O)N[C@H]1CSSC[C@@H](C(=O)N[C@@H](Cc2c[nH]c3ccc(F)cc23)C(=O)N[C@@H](Cc2ccccc2)C(=O)N[C@H](C(=O)O)C(C)(C)O)NC(=O)[C@H](Cc2ccc(O)cc2)NC(=O)[C@H](C(C)C)NC(=O)[C@H](CC(=O)O)NC(=O)[C@H](CC2CCN(CC(=O)O)CC2)NC(=O)[C@H](CCCCNC(=O)CN2CCN(CC(=O)O)CCN(CC(=O)O)CCN(CC(=O)O)CC2)NC(=O)CNC(=O)[C@H](C(C)(C)C)NC1=O [compound 343, Ac-hLeu-Y-C-Tbg-G-Lys(DOTA)-Pip(CH2COOH)Ala-D-V-Y-C-5FW-F-hydroxyVal-COOH] (Ac-[hLeu]YC[Tle]GK(DOTA)[Ala(1-CH2CO2H-4-piperidyl)]DVYC[Trp(5-F)]F[Val(3-OH)]-OH; disulfide 3-11) |  | 7.00 to 8.00
CC(=O)N[C@@H](CCC(C)C)C(=O)N[C@@H](Cc1ccc(O)cc1)C(=O)N[C@H]1CSSC[C@@H](C(=O)N[C@@H](Cc2cccc3ccccc23)C(=O)N[C@@H](Cc2ccccc2)C(=O)N2CCC[C@H]2C(=O)N[C@H](CCCCNC(=O)CN2CCN(CC(=O)O)CCN(CC(=O)O)CCN(CC(=O)O)CC2)C(N)=O)NC(=O)[C@H](Cc2ccc(O)cc2)NC(=O)[C@H](C(C)C)NC(=O)[C@H](CC(=O)O)NC(=O)[C@H](Cc2ccc(C(=O)O)cc2)NC(=O)[C@H](CC2CCNCC2)NC(=O)CNC(=O)[C@H](C(C)(C)C)NC1=O [compound 315, Ac-hLeu-Y-C-Tbg-G-PipAla-4COOHPhe-D-V-Y-C-5FW-F-Pro-dLys(DOTA)-CONH2] (Ac-[hLeu]YC[Tle]G[Ala(piperidin-4-yl)][Phe(4-COOH)]DVYC[1Nal]FP[dK](DOTA)-NH2; disulfide 3-11) |  | 8.00 to 9.00
